Positions count from the first letter of the chain named.

The results in this text go back to PMC10694602, “Binding of perilipin 3 to membranes containing diacylglycerol is mediated by conserved residues within its PAT domain” (The Journal of Biological Chemistry, 2023).

One assay concerns the target T1, PLIN3 - E86A (Homo sapiens, UniProt O60664, E86A).
T1 construct: Plasmids containing human full-length PLIN3 or fragments thereof were obtained by PCR amplification; made in house; host or cells: Escherichia coli BL21 (DE3) or NiCo21 (DE3)
T1 sequence (O60664 1-434 E86A): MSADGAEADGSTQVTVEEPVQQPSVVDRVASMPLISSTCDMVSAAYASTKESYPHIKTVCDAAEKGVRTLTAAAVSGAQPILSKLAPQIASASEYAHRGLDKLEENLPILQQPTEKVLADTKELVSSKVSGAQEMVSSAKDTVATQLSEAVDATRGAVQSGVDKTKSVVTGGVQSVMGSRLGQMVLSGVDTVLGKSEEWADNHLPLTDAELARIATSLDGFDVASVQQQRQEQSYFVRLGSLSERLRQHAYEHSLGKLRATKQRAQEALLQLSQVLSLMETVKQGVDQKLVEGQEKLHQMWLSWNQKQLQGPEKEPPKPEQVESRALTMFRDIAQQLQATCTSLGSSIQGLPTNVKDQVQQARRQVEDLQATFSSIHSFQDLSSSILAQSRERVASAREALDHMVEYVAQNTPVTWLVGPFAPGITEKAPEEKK
Put plainly: MST binding to the PLIN3 point mutant. Particulars: short chain lipid as free ligand. The source says: (§1) To validate this predicted mode of DAG binding by the PAT domain, we generated mutant versions of PLIN3 and assessed their impact on DAG binding by MST. First, we tested whether the simultaneous substitution of the five residues, Q22, S24, E86A, I89G, and S93A, would impact either binding of short chain DAG or that of liposomes containing low concentrations of DAG. […] To assess the impact of these residues in more detail, we first tested mutations in the two serine residues S24A and S93A. […] To confirm the importance of the glutamic acid residue at position 86 for binding of DAG, we also generated an E86A point mutant version.
(§2) Binding of purified PLIN3 protein and PLIN3 domains to liposomes, ALDs, or short chain lipids was determined by MST using a Monolith NT.115 system (Nanotemper Technologies). Proteins were labeled with a RED-tris-NTA His tag protein-labeling reagent following the manufacturer’s instructions (Nanotemper Technologies). Labeled proteins were added to a serial dilution of unlabeled lipids, liposomes, or ALDs, and the mixtures were loaded into MST standard capillaries to assess binding affinities. The dissociation constant was obtained by plotting fluorescence intensities of the protein–lipid complex against the concentrations of the unlabeled lipids, liposomes, or ALDs. […]

The next assay addresses T2, PLIN3 - E86A I89G S93A (Homo sapiens, UniProt O60664, E86A/I89G/S93A).
T2 construct: Plasmids containing human full-length PLIN3 or fragments thereof were obtained by PCR amplification; made in house; host or cells: Escherichia coli BL21 (DE3) or NiCo21 (DE3)
T2 sequence (O60664 1-434 E86A/I89G/S93A): T1 sequence (O60664 1-434 E86A) with I89G, S93A
Put plainly: MST binding to the PLIN3 triple mutant. Particulars: short chain lipid as free ligand; n.d. = not detected; Fig. 4C.
From the text: as §1, §2

In general, Kd refers to the free concentration of one partner at which half of the binding sites on the other are occupied at equilibrium, for simple one-to-one binding. Take `CCCCCCCC(=O)OC[C@H](CO)OC(=O)CCCCCCC` [8:0 DAG, 1,2-dioctanoyl-sn-glycerol]: the “fold less efficient binding than WT PLIN3” value on PLIN3 - E86A came to 873 fold. This compound also yielded a Kd on PLIN3 - E86A (Fig. 4C) of 87.3 µM. Besides, the KD result on PLIN3 - E86A I89G S93A is reported as “failed to bind”.
